Among the data in ChEMBL document CHEMBL3352214, “Studies on indolizines. Evaluation of their biological properties as microtubule-interacting agents and as melanoma targeting compounds” (Eur J Med Chem, 2015) are inhibition and inhibition of growth values, retold here.

The species entered for experiment [1] is Ovis aries. Description: Inhibition of sheep brain tubulin polymerization at 100 uM by fluorescence assay.
Experiment [2] concerns NCI-H522. Description: Growth inhibition of human NCI-H522 cells at 10^-5 M after 48 hrs by SRB assay. In kind it is functional. As to conditions: NCI-H522, 48 h, read-out: GI.
In experiment [3] the test system is SNB-75. Description: Growth inhibition of human SNB75 cells at 10^-5 M after 48 hrs by SRB assay. In kind it is functional. As to conditions: SNB-75, 48 h, read-out: GI. (In general: Sulforhodamine B stains cellular protein and so reports cell mass.)
The test system of experiment [4] is CAKI-1. Description: Growth inhibition of human Caki1 cells at 10^-5 M after 48 hrs by SRB assay. It is filed as functional. As to conditions: CAKI-1, 48 h, read-out: GI.
For experiment [5], the system named is MDA-MB-435. Put plainly: Growth inhibition of human MDA-MB-435 cells at 10^-5 M after 48 hrs by SRB assay. As to conditions: MDA-MB-435, 48 h, read-out: GI. It is filed as functional.
Experiment [6] concerns MCF7. Description: Growth inhibition of human MCF7 cells at 10^-5 M after 48 hrs by SRB assay. In kind it is functional. As to conditions: MCF7, 48 h, read-out: GI.
A short description of experiment [7]: Growth inhibition of human SF295 cells at 10^-5 M after 48 hrs by SRB assay. In kind it is functional. As to conditions: SF-295, 48 h, read-out: GI.
The test system of experiment [8] is T47D. Description: Growth inhibition of human T47D cells at 10^-5 M after 48 hrs by SRB assay. It is filed as functional. As to conditions: Homo sapiens, T47D, 48 h; read-out: GI.
Experiment [9] in a line: Growth inhibition of human MOLT4 cells at 10^-5 M after 48 hrs by SRB assay. It is filed as functional. As to conditions: MOLT-4, 48 h, read-out: GI.
Experiment [10] has as its system A498. Description: Growth inhibition of human A498 cells at 10^-5 M after 48 hrs by SRB assay. As to conditions: A498, 48 h, read-out: GI. It is filed as functional.
A short description of experiment [11]: Growth inhibition of human HCT116 cells at 10^-5 M after 48 hrs by SRB assay. It is filed as functional. As to conditions: HCT-116, 48 h, read-out: GI.
The subject of experiment [12] is HL-60(TB). Description: Growth inhibition of human HL-60(TB) cells at 10^-5 M after 48 hrs by SRB assay. In kind it is functional. As to conditions: HL-60, 48 h, read-out: GI.
Experiment [13] can be described thus: Growth inhibition of human PC3 cells at 10^-5 M after 48 hrs by SRB assay. It is filed as functional. As to conditions: PC-3, 48 h, read-out: GI.
In experiment [14] the test system is Malme-3M. Put plainly: Growth inhibition of human MALME-3M cells at 10^-5 M after 48 hrs by SRB assay. In kind it is functional. As to conditions: read-out: GI.
A short description of experiment [15]: Growth inhibition of human HCT15 cells at 10^-5 M after 48 hrs by SRB assay. In kind it is functional. As to conditions: HCT-15, 48 h, read-out: GI.
Experiment [16] can be described thus: Growth inhibition of human HOP92 cells at 10^-5 M after 48 hrs by SRB assay. It is filed as functional. As to conditions: HOP-92, 48 h, read-out: GI.
A short description of experiment [17]: Growth inhibition of human EKVX cells at 10^-5 M after 48 hrs by SRB assay. In kind it is functional. As to conditions: read-out: GI.

For the compound `CCOC(=O)c1c(C(=O)OCC)c2cc(N(C)C)ccn2c1C(=O)c1cc(OC)c(OC)c(OC)c1`, the inhibition (usually the percentage by which the read-out fell short of the control) in experiment [1] is 26%.

`COc1cc(C(=O)c2cc(C(=O)O)c3cccc(C)n23)cc(OC)c1OC`: the inhibition of growth at 10 µM in experiment [2] turned out to be 15%; in experiment [3], 9%; in experiment [4], 0%; in experiment [5] it was 0%; in experiment [6], 12%; in experiment [7] it was 0%. Besides, the inhibition of growth at 10 µM in experiment [8] is 0%; in experiment [9], 7%; in experiment [10], 2%; in experiment [11] it was 0%; in experiment [12], 3%; in experiment [13], 5%. Moreover, the inhibition of growth at 10 µM in [14] was 0%; in [15], 7%. This compound also came in with an inhibition in experiment [1] of 28%.

On to `CCOC(=O)c1cc(C(=O)c2cc(OC)c(OC)c(OC)c2)n2ccc3ccccc3c12`, for which, in experiment [1], the inhibition came out at 41%.

As for `CCOC(=O)c1c(C(=O)OCC)c2cc(C)ccn2c1C(=O)c1cc(OC)c(OC)c(OC)c1`, the inhibition in [1] turned out to be 39%.

Take `COc1cc(C(=O)c2cc(C#N)c3c(C#N)cccn23)cc(OC)c1OC`: the inhibition of growth at 10 µM in [2] was determined as 0%; in experiment [16], 8%; in [3], 69%; in [4] it was 6%; in experiment [5] it was 54%; in [6] it was 29%. Moreover, the inhibition of growth at 10 µM turned out to be 10% in experiment [8]; 0% in [9]; 0% in [10]; 11% in experiment [11]; 7% in experiment [12]; 12% in [13]. In addition, the figures for the inhibition of growth at 10 µM in [14] and in [15] were 28% and 23%, respectively. Besides, the inhibition in experiment [1] was 39%.

On to `COC(=O)c1c2c(O)nnc(-c3ccc(OC)cc3)c2n2cc(C)cc(C)c12`, for which the inhibition of growth at 10 µM in [2] was found to be 22%; in experiment [16], 21%; in experiment [3], 19%; in experiment [4] it was 15%; in [5], 0%; in experiment [6] it was 6%. Besides, the inhibition of growth at 10 µM worked out at 2% in [7]; 15% in experiment [9]; 45% in [10]; 2% in experiment [11]; 7% in [12]; 24% in [13]. Moreover, the inhibition of growth at 10 µM in [14] and in experiment [15] was 0% in each case. For the same compound, the inhibition in [1] was found to be 58%.

The compound `COC(=O)c1c(C(=O)OC)c2c(C)cc(C)cn2c1C(=O)c1cc(OC)c(OC)c(OC)c1` displayed an inhibition in [1] of 36%.

`COC(=O)c1c(C(=O)OC)c2cc(OC)ccn2c1C(=O)c1cc(OC)c(OC)c(OC)c1`: the inhibition of growth at 10 µM in [2] came to 4%; in experiment [17], 7%; in [3], 0%; in [4], 2%; in experiment [5], 4%; in [6] it was 0%. Also, the inhibition of growth at 10 µM worked out at 11% in experiment [7]; 6% in experiment [8]; 0% in [9]; 0% in experiment [10]; 2% in [11]; 1% in experiment [12]. The inhibition of growth at 10 µM in experiment [14] stood at 0%; in experiment [15], 13%. In experiment [1], this compound had an inhibition of 16%.

For `CCOC(=O)c1cc(C(=O)c2cc(OC)c(OC)c(OC)c2)n2cc(C)cc(C)c12`, the inhibition of growth at 10 µM in experiment [2] turned out to be 8%; in [16], 29%; in experiment [17] it was 6%; in [3], 11%; in experiment [4], 13%; in experiment [5], 4%. The inhibition of growth at 10 µM in experiment [6] is 4%; in experiment [7] it was 3%; in [8], 18%; in [9] it was 0%; in experiment [11], 45%; in experiment [12] it was 0%. In addition, the values for the inhibition of growth at 10 µM in experiment [13], in experiment [14] and in experiment [15] were 2%, 25% and 0%, respectively. Besides, in experiment [1], the inhibition stood at 3%.

With `CCOC(=O)c1c2c(O)nnc(-c3cc(OC)c(OC)c(OC)c3)c2n2cc(C)cc(C)c12`, the inhibition of growth at 10 µM in experiment [2] is 1%; in [16], 0%; in experiment [3], 5%; in [4], 0%; in experiment [5] it was 0%; in experiment [6], 0%. Besides, the inhibition of growth at 10 µM was 0% in [7]; 0% in experiment [8]; 0% in experiment [9]; 15% in [10]; 6% in [11]; 0% in experiment [12]. In addition, the inhibition of growth at 10 µM in experiment [13], in [14] and in experiment [15] was 0% each time. In addition, the inhibition in [1] was 43%.

Consider `CCOC(=O)c1cc(C(=O)c2cc(OC)c(OC)c(OC)c2)n2ccc(N(C)C)cc12`, for which the inhibition of growth at 10 µM in [2] was found to be 0%; in experiment [17], 9%; in experiment [3] it was 0%; in experiment [4], 10%; in experiment [5], 5%; in experiment [6] it was 7%. In addition, the inhibition of growth at 10 µM in [7] turned out to be 0%; in experiment [8] it was 5%; in experiment [9] it was 7%; in experiment [10], 11%; in experiment [11], 0%; in experiment [12], 8%. Moreover, the inhibition of growth at 10 µM is 12% in experiment [13], 0% in experiment [14] and 0% in experiment [15]. In experiment [1], this compound had an inhibition of 36%.

For the compound `COC(=O)c1c(C(=O)OC)c2cccc(C)n2c1C(=O)c1cc(OC)c(OC)c(OC)c1`, the inhibition in [1] worked out at 32%.

Turning to `CCOC(=O)c1cc(C(=O)c2ccc(OC)cc2)n2cc(C)cc(C)c12`, the inhibition of growth at 10 µM in experiment [2] was 43%; in [16] it was 11%; in experiment [17], 29%; in experiment [3], 46%; in [4] it was 24%; in experiment [5], 11%. The inhibition of growth at 10 µM in experiment [6] was determined as 17%; in experiment [7], 35%; in [8], 13%; in experiment [10], 30%; in experiment [11] it was 23%; in experiment [12], 83%. Further, the inhibition of growth at 10 µM in [13] was found to be 20%; in experiment [14], 28%; in experiment [15], 14%. The same compound gave an inhibition in experiment [1] of 32%.

Take `CCOC(=O)c1cc(C(=O)c2cc(OC)c(OC)c(OC)c2)n2ccc(C#N)cc12`: the inhibition in [1] was 13%.

For the compound `COc1cc(C(=O)c2cc(C#N)c3cc(C#N)ccn23)cc(OC)c1OC`, the inhibition of growth at 10 µM in experiment [2] stood at 12%; in experiment [16], 0%; in [3], 7%; in experiment [4] it was 3%; in [5] it was 81%; in experiment [6] it was 15%. Besides, the inhibition of growth at 10 µM in experiment [7] turned out to be 4%; in experiment [8] it was 6%; in experiment [9], 2%; in experiment [10], 10%; in [11], 2%; in [12], 20%. The figures for the inhibition of growth at 10 µM in experiment [13], in [14] and in experiment [15] were 8%, 26% and 21%, respectively. Besides, the inhibition in experiment [1] came out at 46%.
